Source: patent US20220380801A1, “TRIPARTITE SYSTEMS FOR PROTEIN DIMERIZATION AND METHODS OF USE” (priority 2019, published 2022)

Each molecule was assayed on mutant HCV PR: simeprevir: PRSIM_23 complex (assay: HTRF disruption of pre-formed mutant complexes). Settings: mutation at position 136.
Format: binding, Hepatitis C virus subtype 1a
Protocol: Methods of determining whether the competing small molecule is capable of binding to the target protein in the T-SM complex and displacing the small molecule from the T-SM complex include assays where a pre-formed tripartiate complex is generated and the ability of the binding member to bind the T-SM complex is measured (e.g. by a homogeneous time-resolved florescence (HTFR) binding assay) as increasing concentrations of the competing small molecule are added. A competing small molecule may be capable to displaying the small molecule from the T-SM complex if it is capable of inhibiting binding of inhibiting the binding member from binding the T-SM complex by at least 50%, by at least 75%, by at least 80%, by at least 85%, by at least 90%, or by at least 95% when measured using the HTFR binding assay. In some embodiments, the competing small molecule is asunaprevir, paritaprevir, vaniprevir, grazoprevir, danoprevir or glecaprevir. The binding member, target protein and small molecule using in the method may be as further defined herein in relation to other aspects of the disclosure.
To further characterise the mutations made to the HCV NS3/4A PR, we investigated whether the small molecules were able to disrupt pre-formed mutant HCV PR: simeprevir: PRSIM_23 complexes. […] The degree of inhibition is dependent on the specific mutation made.

Row | Structure (SMILES) | inhibition of pre-formed mutant complex
1 | C=C[C@@H]1C[C@]1(NC(=O)[C@@H]1C[C@@H](Oc2ncc(OC)c3ccc(Cl)cc23)CN1C(=O)[C@@H](NC(=O)OC(C)(C)C)C(C)(C)C)C(=O)NS(=O)(=O)C1CC1 [asunaprevir] | more pronounced inhibition
2 | CC(C)(C)OC(=O)N[C@H]1CCCCC/C=C\[C@@H]2C[C@@]2(C(=O)NS(=O)(=O)C2CC2)NC(=O)[C@@H]2C[C@@H](OC(=O)N3Cc4cccc(F)c4C3)CN2C1=O [danoprevir] | more pronounced inhibition
3 | CC(C)(C)[C@@H]1NC(=O)O[C@@H]2CCC[C@H]2OC/C=C/C(F)(F)c2nc3ccccc3nc2O[C@@H]2C[C@@H](C(=O)N[C@]3(C(=O)NS(=O)(=O)C4(C)CC4)C[C@H]3C(F)F)N(C2)C1=O [glecaprevir] | more pronounced inhibition
4 | C=C[C@@H]1C[C@]1(NC(=O)[C@@H]1C[C@@H]2CN1C(=O)[C@H](C(C)(C)C)NC(=O)O[C@@H]1C[C@H]1CCCCCc1nc3ccc(OC)cc3nc1O2)C(=O)NS(=O)(=O)C1CC1.O [grazoprevir] | more pronounced inhibition
5 | Cc1cnc(C(=O)N[C@H]2CCCCC/C=C\[C@@H]3C[C@@]3(C(=O)NS(=O)(=O)C3CC3)NC(=O)[C@@H]3C[C@@H](Oc4nc5ccccc5c5ccccc45)CN3C2=O)cn1 [paritaprevir] | more pronounced inhibition
6 | CC[C@@H]1C[C@]1(NC(=O)[C@@H]1C[C@@H]2CN1C(=O)[C@H](C(C)(C)C)NC(=O)OCC(C)(C)CCCCc1cccc3c1CN(C3)C(=O)O2)C(=O)NS(=O)(=O)C1CC1 [vaniprevir] | more pronounced inhibition
